Reference: PubChem BioAssay (NCI)
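GI50 marks 50% less growth. TGI marks complete inhibition of growth.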

Columns and labels:
Assay in all cases: NCI tumour cell line growth inhibition, 384-well format
786-0 renal = tested on: 786-0 renal
A498 renal = tested on: A498 renal
A549 NSCLC = tested on: A549 NSCLC
BT-549 breast = tested on: BT-549 breast
CAKI-1 renal = tested on: CAKI-1 renal
CCRF-CEM leukemia = tested on: CCRF-CEM leukemia
COLO 205 colon = tested on: COLO 205 colon
DU-145 prostate = tested on: DU-145 prostate
HCC-2998 colon = tested on: HCC-2998 colon
HCT-116 colon = tested on: HCT-116 colon
HCT-15 colon = tested on: HCT-15 colon
HL-60(TB) leukemia = tested on: HL-60(TB) leukemia
HOP-92 NSCLC = tested on: HOP-92 NSCLC
HT29 colon = tested on: HT29 colon
IGROV1 ovarian = tested on: IGROV1 ovarian
K-562 leukemia = tested on: K-562 leukemia
KM12 colon = tested on: KM12 colon
LOX IMVI melanoma = tested on: LOX IMVI melanoma
M14 melanoma = tested on: M14 melanoma
MALME-3M melanoma = tested on: MALME-3M melanoma
MCF7 breast = tested on: MCF7 breast
MDA-MB-231 breast = tested on: MDA-MB-231 breast
MDA-MB-435 melanoma = tested on: MDA-MB-435 melanoma
MDA-MB-468 breast = tested on: MDA-MB-468 breast
NCI-H226 lung = tested on: NCI-H226 lung
NCI-H23 lung = tested on: NCI-H23 lung
NCI-H322M lung = tested on: NCI-H322M lung
NCI-H522 lung = tested on: NCI-H522 lung
OVCAR-3 ovarian = tested on: OVCAR-3 ovarian
OVCAR-5 ovarian = tested on: OVCAR-5 ovarian
OVCAR-8 ovarian = tested on: OVCAR-8 ovarian
PC-3 prostate = tested on: PC-3 prostate
RPMI-8226 leukemia = tested on: RPMI-8226 leukemia
SF-268 CNS = tested on: SF-268 CNS
SF-295 CNS = tested on: SF-295 CNS
SK-MEL-2 melanoma = tested on: SK-MEL-2 melanoma
SK-MEL-28 melanoma = tested on: SK-MEL-28 melanoma
SK-MEL-5 melanoma = tested on: SK-MEL-5 melanoma
SK-OV-3 ovarian = tested on: SK-OV-3 ovarian
SNB-75 CNS = tested on: SNB-75 CNS
SR leukemia = tested on: SR leukemia
SW-620 colon = tested on: SW-620 colon
T-47D breast = tested on: T-47D breast
TK-10 renal = tested on: TK-10 renal
U251 glioblastoma = tested on: U251 glioblastoma
UACC-62 melanoma = tested on: UACC-62 melanoma
UO-31 renal = tested on: UO-31 renal

CC1(N)CCN(c2cccnc2NC(=O)c2nc(-c3ncccc3C(F)(F)F)cnc2N)CC1
GI50 ([…]-0 renal): 8.25 µM | TGI (786-0 renal): 24 µM | GI50 (A498 renal): 8.29 µM | TGI (A498 renal): 22.8 µM | GI50 (A549 NSCLC): 25 µM | TGI (A549 NSCLC): > 65 µM | GI50 (BT-549 breast): 8.16 µM | TGI (BT-549 breast): 20.6 µM | GI50 (CAKI-1 renal): 6.11 µM | TGI (CAKI-1 renal): 24.2 µM | GI50 (CCRF-CEM leukemia): 15.4 µM | TGI (CCRF-CEM leukemia): 28.9 µM | GI50 (COLO 205 colon): 17.9 µM | TGI (COLO 205 colon): > 54.6 µM | GI50 (DU-145 prostate): 19.3 µM | TGI (DU-145 prostate): > 58.8 µM | GI50 (HCC-2998 colon): 17.9 µM | TGI (HCC-2998 colon): 33.4 µM | GI50 (HCT-116 colon): 11.6 µM | TGI (HCT-116 colon): 26 µM | GI50 (HCT-15 colon): 20.7 µM | TGI (HCT-15 colon): 56.3 µM | GI50 (HL-60(TB) leukemia): 7.32 µM | TGI (HL-60(TB) leukemia): 18 µM | GI50 (HOP-92 NSCLC): 20.4 µM | TGI (HOP-92 NSCLC): 57.6 µM | GI50 (HT29 colon): 17.2 µM | TGI (HT29 colon): > 58.8 µM | GI50 (IGROV1 ovarian): 3.28 µM | TGI (IGROV1 ovarian): 15 µM | GI50 (K-562 leukemia): 16.3 µM | TGI (K-562 leukemia): 31.3 µM | GI50 (KM12 colon): 0.308 µM | TGI (KM12 colon): 20.2 µM | GI50 (LOX IMVI melanoma): 19 µM | TGI (LOX IMVI melanoma): 33.6 µM | GI50 (M14 melanoma): 20.3 µM | TGI (M14 melanoma): 40.3 µM | GI50 (MALME-3M melanoma): 14.8 µM | TGI (MALME-3M melanoma): 28.1 µM | GI50 (MCF7 breast): 24.6 µM | TGI (MCF7 breast): > 54.9 µM | GI50 (MDA-MB-231 breast): 20.5 µM | TGI (MDA-MB-231 breast): 46.9 µM | GI50 (MDA-MB-435 melanoma): > 56.1 µM | TGI (MDA-MB-435 melanoma): > 100 µM | GI50 (MDA-MB-468 breast): 13.6 µM | TGI (MDA-MB-468 breast): 28.2 µM | GI50 (NCI-H226 lung): 16.9 µM | TGI (NCI-H226 lung): 47.4 µM | GI50 (NCI-H23 lung): 29.7 µM | TGI (NCI-H23 lung): > 78.7 µM | GI50 (NCI-H322M lung): 23.7 µM | TGI (NCI-H322M lung): > 60 µM | GI50 (NCI-H522 lung): 4.86 µM | TGI (NCI-H522 lung): 18.8 µM | GI50 (OVCAR-3 ovarian): 15.1 µM | TGI (OVCAR-3 ovarian): 44.5 µM | GI50 (OVCAR-5 ovarian): 16.8 µM | TGI (OVCAR-5 ovarian): 48.1 µM | GI50 (OVCAR-8 ovarian): 30.9 µM | TGI (OVCAR-8 ovarian): > 70.5 µM | GI50 (PC-3 prostate): 16.7 µM | TGI (PC-3 prostate): 57 µM | GI50 (RPMI-8226 leukemia): 10.4 µM | TGI (RPMI-8226 leukemia): 32.8 µM | GI50 (SF-268 CNS): 19.9 µM | TGI (SF-268 CNS): 47 µM | GI50 (SF-295 CNS): > 49.3 µM | TGI (SF-295 CNS): > 72.6 µM | GI50 (SK-MEL-2 melanoma): 18.4 µM | TGI (SK-MEL-2 melanoma): 47.2 µM | GI50 (SK-MEL-28 melanoma): 24.2 µM | TGI (SK-MEL-28 melanoma): > 62.3 µM | GI50 (SK-MEL-5 melanoma): 18.2 µM | TGI (SK-MEL-5 melanoma): 34.3 µM | GI50 (SK-OV-3 ovarian): 17.8 µM | TGI (SK-OV-3 ovarian): 38.6 µM | GI50 (SNB-75 CNS): 17 µM | TGI (SNB-75 CNS): 48.2 µM | GI50 (SR leukemia): 9.47 µM | TGI (SR leukemia): 21.5 µM | GI50 (SW-620 colon): 19.3 µM | TGI (SW-620 colon): 60.6 µM | GI50 (T-47D breast): 11.6 µM | TGI (T-47D breast): 26.9 µM | GI50 (TK-10 renal): 7.5 µM | TGI (TK-10 renal): 26.1 µM | GI50 (U251 glioblastoma): 13.6 µM | TGI (U251 glioblastoma): 30.5 µM | GI50 (UACC-62 melanoma): 19.4 µM | TGI (UACC-62 melanoma): > 53.4 µM | GI50 (UO-31 renal): 31 µM | TGI (UO-31 renal): > 100 µM
